The nature of one series: in vivo. Format: in vivo. As to conditions: mouse, in vivo, oral, mice. As to the method: (§1) Mice (ddy strain, male, 5 weeks old) are reared for one week, then fasted for 15 hours and thereafter orally given the compound forcibly. After the administration, the mice are placed into plastic cages, with free access to a solid diet and water, and checked for mortality 3 days, one week, 2 weeks and 3 weeks later. LD50 is calculated according to the method of Litchfield and Wilcoxon.

A further series concerns Mice (ddy strain). Briefly: in vivo. The settings on record: for LD50: oral, mice. The class given is in vivo. Here is the method:
as §1

For another series, the system named is Ehrlich carcinoma. Briefly: Anti-tumor activity on Ehrlich carcinoma, subcutaneous transplant. The class given is in vivo. As to conditions: mice, oral once daily 7 days; for Inhibition percentage: 121.5 mg/kg (bis) or 90 mg/kg (mono), tumor weight on 10th day; for Weight of tumor: 121.5 mg/kg (bis) or 90 mg/kg (mono, equimolar), 10th day, control 0.61 ± 0.08 g. As to the method:
(§2) As transplantable tumors, Ehrlich carcinoma and sarcoma 180 are used for mice and Yoshida sarcoma and AH 130 for rats. […] The effect of the compound is determined in terms of the weight of tumor on the 10th day from the transplantation.

In the next series the test system is sarcoma 180. Put plainly: Anti-tumor activity on sarcoma 180, subcutaneous transplant. Format: in vivo. As to conditions: mice, oral once daily 7 days, 121.5 mg/kg (bis) or 90 mg/kg (mono); for Weight of tumor: 10th day, control 1.00 ± 0.09 g; for Inhibition percentage: tumor weight on 10th day. Here is the method:
as §2

A further series has as its system Yoshida sarcoma. Put plainly: Anti-tumor activity on Yoshida sarcoma, subcutaneous transplant. The class given is in vivo. The settings on record: rats, oral once daily 7 days, 121.5 mg/kg (bis) or 90 mg/kg (mono); for Weight of tumor: 10th day, control 4.48 ± 0.60 g; for Inhibition percentage: tumor weight on 10th day. As to the method:
as §2

Another series has as its system AH-130. Briefly: Anti-tumor activity on AH-130, subcutaneous transplant. The class given is in vivo. The settings on record: rats, oral once daily 7 days, 121.5 mg/kg (bis) or 90 mg/kg (mono); for Weight of tumor: 10th day, control 2.10 ± 0.50 g; for Inhibition percentage: tumor weight on 10th day. Here is the method: as §2
The nature of a further series: Solubility. The class given is physicochemical.
A further series concerns tumor. Briefly: Anti-tumor activity, overall comparison with 1-(2-tetrahydrofuryl)-5-fluorouracil. The class given is in vivo. As to conditions: versus 1-(2-tetrahydrofuryl)-5-fluorouracil. As to the method:
as §2

The nature of series [1]: Conversion in the body into 5-fluorouracil. As to conditions: in vivo.
Experimental: (§3) Cells of the tumor, AH-130, 5×10^6 in number, are subcutaneously transplanted in the armpit region of test animals (3 in each group). […] The concentration of 5-fluorouracil in the blood and in the cancer cellular tissue of the animals are measured 1, 2, 4, 8 and 12 hours after the administration.
The subject of a further series is cellular immunity. The settings on record: mouse, in vivo.
The conditions of series [2]: rat, in vivo; for Concentration of 5-fluorouracil in blood: po.
Experimental: as §3
The conditions of series [3]: rat, in vivo; for Concentration of 5-fluorouracil in cancer cellular tissue: po.
Experimental: as §3
A short description of series [4]: Toxicity and side effects, overall statement. As to conditions: versus 1-(2-tetrahydrofuryl)-5-fluorouracil.
In a further series the test system is immunity. As to conditions: versus 5-fluorouracil; Giller et al., British Pat. No. 1,168,391; cited from earlier work.
For series [5] the following is noted: cited from earlier work.
A further series relates to transplanted tumors. The settings on record: Heidelberger et al.; cited from earlier work.

Like-named read-outs stand apart in the source and are kept apart here.

We go through three molecules from US4371535A, “Method of and composition for delivering 5-fluorouracil to tumors” (priority 1976, dated 1983).

Experimental for cellular immunity: A predetermined amount of 7 wt. % ethanol solution of picryl chloride is given to the shaved abdomens of mice for sensitization. […] On the seventh day after the sensitization, a 1 wt. % olive oil solution of picryl chloride is applied to the inside of both ears of each animal to give rise to a delayed cutireaction. The thickness of the ear resulting from the reaction in 24 hours is measured to calculate the percentage of inhibition on immunity.

With `O=c1c(F)cn(C2CCCO2)c(=O)n1C1CCCO1` (centres unmarked) [1,3-bis(2-tetrahydrofuryl)-5-fluorouracil], the LD50 at 504 h in “in vivo” (3 weeks) was determined as 2560 mg/kg. This molecule yielded an LD50 at 72 h in the series “in vivo” (3 days) of 2980 mg/kg. In addition, the LD50 in the series with Mice (ddy strain) (1 week, 10080 min) is on record as 2,780 mg/kg; with Mice (ddy strain) (2 weeks, 20160 min) it was 2,664 mg/kg. For the same molecule, in the series with Mice (ddy strain) (versus composition containing 1-(2-tetrahydrofuryl)-5-fluorouracil), the “Acute toxicity relative to the conventional composition” value is reported as “about one-third”. For the same molecule, the Inhibition percentage is reported as 57% in the series on Ehrlich carcinoma, 69% in the series with sarcoma 180, 42% in the series on Yoshida sarcoma and 56% with AH-130. The Weight of tumor in the series on Ehrlich carcinoma was determined as 0.26 ± 0.06 g; in the series with sarcoma 180, 0.31 ± 0.10 g; in the series on Yoshida sarcoma, 2.59 ± 0.33 g; in the series with AH-130, 0.92 ± 0.35 g. In addition, the Solubility result in the series “Solubility” (methanol, ethanol, acetone, ether, chloroform, glacial acetic acid, dimethyl sulfoxide) is recorded as “soluble”; in the series “Solubility” (water, aqueous caustic soda solution, ethyl acetate, hydrochloric acid), “sparingly soluble”. Further, the “Anti-tumor activity, in words” value in the series on tumor is given as “more excellent anti-tumor activity”. Further, in series [1], the “Conversion in the body (prodrug)” value is “converted in the body into 5-fluorouracil”. Further, the “Inhibitory effect on the cellular immunity relative to the conventional composition” value in the series with cellular immunity was “lower inhibitory effect on the cellular immunity”. For the same molecule, in series [2], the “Concentration of 5-fluorouracil in the blood relative to the conventional composition” value was 10-20 times. The “Concentration of 5-fluorouracil in blood” value stood at 5880 ng/mL in series [2] (60 min); 5080 ng/mL in series [2] (120 min); 2650 ng/mL in [2] (240 min); 570 ng/mL in series [2] (480 min); 200 ng/mL in series [2] (720 min). Moreover, in series [3], the “Concentration of 5-fluorouracil in cancer cellular tissue relative to the conventional composition” value is 10-20 times. Moreover, the “Concentration of 5-fluorouracil maintained in cancer cellular tissue, in words” value in series [3] is “much higher”. Moreover, the “Concentration of 5-fluorouracil in cancer cellular tissue” value in series [3] (60 min) was found to be 8930 ng/mL; in series [3] (120 min), 7530 ng/mL; in series [3] (240 min), 7530 ng/mL; in series [3] (480 min), 5400 ng/mL; in series [3] (720 min), 2130 ng/mL. For the same molecule, the “Side effects, in words” value in series [4] is “less side effects”. For the same molecule, in series [4], the “Toxicity, in words” value is recorded as “lower toxicity”.
For `O=c1[nH]c(=O)n(C2CCCO2)cc1F` (centres unmarked) [1-(2-tetrahydrofuryl)-5-fluorouracil, reference compound], the Inhibition percentage with Ehrlich carcinoma came out at 39%; in the series on sarcoma 180, 64%; in the series with Yoshida sarcoma it was 22%; with AH-130, 47%. Further, the Weight of tumor with Ehrlich carcinoma was found to be 0.37 ± 0.14 g; in the series with sarcoma 180, 0.36 ± 0.11 g; in the series with Yoshida sarcoma, 3.48 ± 0.68 g; in the series on AH-130, 1.11 ± 0.17 g. In addition, the “Concentration of 5-fluorouracil in blood” value in [2] (60 min) is 200 ng/mL; in series [2] (120 min), 300 ng/mL; in series [2] (240 min), 200 ng/mL; in series [2] (480 min), 80 ng/mL; in series [2] (720 min), no more than 40 ng/mL. Moreover, the “Concentration of 5-fluorouracil in cancer cellular tissue” value in series [3] (60 min) was no more than 200 ng/mL; in series [3] (120 min), 350 ng/mL; in series [3] (240 min), 350 ng/mL; in series [3] (480 min), 340 ng/mL; in series [3] (720 min) it was no more than 200 ng/mL. In addition, in the series on immunity, the “Inhibition on immunity, in words” value is listed as “less inhibitory on immunity than 5-fluorouracil”. Besides, the “Toxicity, in words” value in [5] (versus 5-fluorouracil, Giller et al., British Pat. No. 1,168,391) is given as “lower in toxicity”.
`O=c1[nH]cc(F)c(=O)[nH]1` [5-fluorouracil]: in the series on transplanted tumors, the “Anti-tumor activity, in words” value was “inhibit transplanted tumors”. Further, the “Toxicity, in words” value in series [5] (background statement) is reported as “highly toxic”. The “Side effects, in words” value in series [5] (in vivo) was “reduced immunity, gastro-intestinal ulceration, leucopenia and various other side effects”.
